Molecules are shown by their SMILES.

Here are results for one compound from patent publication US8115060B2, “Means and methods of controlling plant seed germination” (Applied Biotechnology Institute, Inc., priority 2008, dated 2012).

The test system of one series is non-transformed seeds. Kind of series: Germination of non-transformed seeds imbibed in water with biotin. Particulars: biotin in water used for imbibing. The source says: Since our T0 plants were crossed with non-transgenic maize in the greenhouse, it is expected that half of the seeds in our initial transformed plants (T1 seed) should not carry the avidin gene.

For series [1], the system named is seeds from transformation events containing the avidin gene. Kind of series: Germination of T1 seeds containing the avidin gene, imbibed with and without biotin. It is filed as in vivo, maize.
In series [2] the test system is corn plants expressing avidin with a constitutive promoter targeted to the cell wall. Kind of series: Reversal of avidin-induced male sterility by application of biotin to corn plants. Particulars: biotin applied to plants; unpublished results. It is filed as in vivo. The source says: Biotin is a B vitamin and provides a safe chemical for seed treatment. In addition, biotin is inexpensive and readily available. […] When avidin was expressed in corn plants with a constitutive promoter targeted to the cell wall, male sterility occurred (14).

Take `O=C(O)CCCC[C@@H]1SC[C@@H]2NC(=O)N[C@@H]21` [biotin]: the “biotin concentration tolerated with no detrimental signs of any effect on germination” value in the series with non-transformed seeds is reported as “up to 10 μg/ml”. In addition, the “number of seeds that failed to germinate” value in series [1] (20 seeds from a single ear of transformed corn imbibed with biotin, after one week, best result) was “one”. Also, in series [1] (several experiments testing 240 seeds, compared with water), the “change in number of non germinating seeds when biotin applied during imbibing” value is on record as “cut in half”. Further, the “reversal of male sterility caused by avidin” value in series [2] is “able to reverse the effect of avidin and render the plants fertile”.
